Results: publication PMC9095466 (Nature, 2022)
“And” between values parts separate entries of the source, which are not always exact repeats. Equal entries are not always repeated. Where two headings read alike, the source gives them in different places.

Columns and labels:
human cathepsin L = target: T1, human cathepsin L (Homo sapiens, UniProt P07711); experiment: Protease selectivity, Ki on protease; format: biochemical; settings: single experiments N1-N4; Figure 1D; read-out: Individual Ki, Cathepsin L
T1 construct: purchased Bio-Techne

Recombinant human DESC1 = target: T2, Recombinant human DESC1 (Homo sapiens, UniProt Q9UL52); experiment: Protease selectivity, Ki on recombinant protease; format: biochemical; settings: single experiments N1-N3; Figure 1D; read-out: Individual Ki, Desc1
T2 construct: made in house
T2 sequence (Q9UL52 1-423): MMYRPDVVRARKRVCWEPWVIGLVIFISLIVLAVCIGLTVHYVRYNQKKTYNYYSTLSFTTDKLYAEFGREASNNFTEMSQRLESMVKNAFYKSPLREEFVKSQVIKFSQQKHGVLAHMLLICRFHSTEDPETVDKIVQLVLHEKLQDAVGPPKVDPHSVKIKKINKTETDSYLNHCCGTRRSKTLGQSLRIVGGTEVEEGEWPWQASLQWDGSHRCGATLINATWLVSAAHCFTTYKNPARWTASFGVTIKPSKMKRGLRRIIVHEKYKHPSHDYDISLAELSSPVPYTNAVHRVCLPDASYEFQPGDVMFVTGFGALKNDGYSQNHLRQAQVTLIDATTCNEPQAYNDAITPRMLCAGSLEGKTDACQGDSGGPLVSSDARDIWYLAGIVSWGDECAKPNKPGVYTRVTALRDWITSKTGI

Calu-3 cells = experiment: Cytotoxicity CC50 in Calu-3 lung epithelial cells; format: cell-based, human; settings: single replicates
[1] = Cytotoxicity CC50 in Calu-3 lung epithelial cells; format: cell-based, human; settings: human, Calu-3 cells; for viability at 24 h, 3000 µM: Log [inhibitor] -2.52; for viability at 24 h, 300 µM: Log [inhibitor] -3.52; for viability at 24 h, 100 µM: Log [inhibitor] -4.00; for viability at 24 h, 30 µM: Log [inhibitor] -4.52; for viability at 24 h, 10 µM: Log [inhibitor] -5.00; for viability at 24 h, 3 µM: Log [inhibitor] -5.52; for viability at 24 h, 0.3 µM: Log [inhibitor] -6.52; for viability at 24 h, 0.03 µM: Log [inhibitor] -7.52; for viability at 24 h, 0.003 µM: Log [inhibitor] -8.52
Recombinant human furin = target: T3, Recombinant human furin (Homo sapiens, UniProt P09958); experiment: Protease selectivity, Ki on recombinant protease; format: biochemical; settings: single experiments N1-N3; Figure 1D; read-out: Individual Ki, Furin
T3 construct: purchased Bio-Techne

human thrombin = target: T4, human thrombin (Homo sapiens, UniProt P00734); experiment: Protease selectivity, Ki on protease; format: biochemical; settings: single experiments N1-N3; Figure 1D; read-out: Individual Ki, Thrombin
T4 construct: purchased MilliporeSigma

[2] = target: T5, Recombinant human matriptase (Homo sapiens, UniProt Q9Y5Y6); experiment: Protease selectivity, Ki on recombinant protease; format: biochemical; settings: single experiments N1-N3; Figure 1D; read-out: Individual Ki, Matriptase
T5 construct: made in house
T5 sequence (Q9Y5Y6 1-855): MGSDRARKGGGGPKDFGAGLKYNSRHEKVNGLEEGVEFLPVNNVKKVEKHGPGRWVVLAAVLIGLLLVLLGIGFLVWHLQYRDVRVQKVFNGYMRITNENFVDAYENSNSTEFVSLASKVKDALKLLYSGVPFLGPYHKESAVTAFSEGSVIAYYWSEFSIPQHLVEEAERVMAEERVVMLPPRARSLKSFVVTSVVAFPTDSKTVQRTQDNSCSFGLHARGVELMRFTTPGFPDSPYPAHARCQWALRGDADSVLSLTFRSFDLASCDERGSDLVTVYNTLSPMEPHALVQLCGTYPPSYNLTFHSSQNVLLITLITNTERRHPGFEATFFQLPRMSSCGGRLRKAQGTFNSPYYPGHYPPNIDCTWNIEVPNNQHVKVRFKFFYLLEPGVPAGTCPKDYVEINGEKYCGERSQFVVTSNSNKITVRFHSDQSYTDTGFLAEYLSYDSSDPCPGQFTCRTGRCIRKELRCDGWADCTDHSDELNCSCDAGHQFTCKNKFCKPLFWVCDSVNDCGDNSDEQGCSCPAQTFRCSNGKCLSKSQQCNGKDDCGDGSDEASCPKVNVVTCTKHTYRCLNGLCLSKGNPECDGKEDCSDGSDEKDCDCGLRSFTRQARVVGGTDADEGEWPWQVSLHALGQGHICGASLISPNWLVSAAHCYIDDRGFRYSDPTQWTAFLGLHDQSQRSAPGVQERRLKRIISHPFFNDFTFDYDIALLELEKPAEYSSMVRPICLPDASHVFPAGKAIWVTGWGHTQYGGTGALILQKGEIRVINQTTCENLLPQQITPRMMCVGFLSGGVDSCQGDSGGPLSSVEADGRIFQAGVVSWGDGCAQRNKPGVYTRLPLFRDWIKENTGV

Recombinant human hepsin = target: T6, Recombinant human hepsin (Homo sapiens, UniProt P05981); experiment: Protease selectivity, Ki on recombinant protease; format: biochemical; settings: single experiments N1-N3; Figure 1D; read-out: Individual Ki, Hepsin
T6 construct: made in house

human TMPRSS2 = human TMPRSS2 (Homo sapiens, UniProt O15393); experiment: cell-based; settings: for TMPRSS2 activity (%): Figure 1B, single experiments N1-N3; for inhibition at 0.01 µM: Vero C1008, 10 nM compound, 24 h, vs untreated/vehicle TMPRSS2-expressing Vero E6 cells, read-out: inhibition of TMPRSS2 activity (reduction of substrate proteolysis)
[3] = test system: SARS-CoV-2 lineage B strain (VIDO); experiment: microbe, parasite or virus in culture; format: cell-based
[4] = read-out: % of Viability, Average (n=2)
[5] = single replicates, read-out: % of Viability

T3 sequence (P09958 108-794): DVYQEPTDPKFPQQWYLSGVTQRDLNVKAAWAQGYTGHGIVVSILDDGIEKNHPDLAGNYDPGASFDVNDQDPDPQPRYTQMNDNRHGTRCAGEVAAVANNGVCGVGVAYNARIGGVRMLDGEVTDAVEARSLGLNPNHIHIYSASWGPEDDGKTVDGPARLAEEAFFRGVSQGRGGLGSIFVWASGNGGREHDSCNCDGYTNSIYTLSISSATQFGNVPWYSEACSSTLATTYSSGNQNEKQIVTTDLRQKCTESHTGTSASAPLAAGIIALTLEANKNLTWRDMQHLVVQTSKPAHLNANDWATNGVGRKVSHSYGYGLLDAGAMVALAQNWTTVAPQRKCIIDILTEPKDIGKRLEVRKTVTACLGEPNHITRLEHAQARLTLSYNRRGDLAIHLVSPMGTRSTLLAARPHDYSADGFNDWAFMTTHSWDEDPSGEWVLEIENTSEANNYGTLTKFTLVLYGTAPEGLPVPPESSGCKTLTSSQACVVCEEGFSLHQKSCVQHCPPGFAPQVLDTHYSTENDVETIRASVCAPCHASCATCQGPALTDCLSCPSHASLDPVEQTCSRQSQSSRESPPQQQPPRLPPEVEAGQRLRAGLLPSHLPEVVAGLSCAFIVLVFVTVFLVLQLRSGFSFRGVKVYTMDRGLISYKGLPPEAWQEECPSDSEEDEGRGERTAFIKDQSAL
Chain of human TMPRSS2 (O15393 whole entry): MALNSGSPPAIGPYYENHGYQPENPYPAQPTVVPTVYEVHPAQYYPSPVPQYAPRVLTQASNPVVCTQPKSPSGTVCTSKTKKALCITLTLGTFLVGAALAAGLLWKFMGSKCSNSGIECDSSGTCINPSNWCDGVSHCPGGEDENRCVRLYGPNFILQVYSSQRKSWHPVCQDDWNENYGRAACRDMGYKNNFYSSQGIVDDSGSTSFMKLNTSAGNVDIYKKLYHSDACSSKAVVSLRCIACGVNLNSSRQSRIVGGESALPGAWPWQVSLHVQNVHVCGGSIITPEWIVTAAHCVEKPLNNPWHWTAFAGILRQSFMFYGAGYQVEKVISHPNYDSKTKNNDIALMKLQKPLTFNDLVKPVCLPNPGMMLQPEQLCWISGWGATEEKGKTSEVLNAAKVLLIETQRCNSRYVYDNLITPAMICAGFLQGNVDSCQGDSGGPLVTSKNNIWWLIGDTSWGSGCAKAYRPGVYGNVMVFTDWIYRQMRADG
T1 sequence (P07711 114-333): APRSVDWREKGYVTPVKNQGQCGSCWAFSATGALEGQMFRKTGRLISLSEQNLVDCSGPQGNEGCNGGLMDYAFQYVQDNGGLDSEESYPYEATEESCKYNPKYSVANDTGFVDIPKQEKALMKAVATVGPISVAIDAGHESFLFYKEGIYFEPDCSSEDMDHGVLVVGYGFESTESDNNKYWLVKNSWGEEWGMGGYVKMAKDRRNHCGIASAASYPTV
T6 sequence (P05981 whole entry): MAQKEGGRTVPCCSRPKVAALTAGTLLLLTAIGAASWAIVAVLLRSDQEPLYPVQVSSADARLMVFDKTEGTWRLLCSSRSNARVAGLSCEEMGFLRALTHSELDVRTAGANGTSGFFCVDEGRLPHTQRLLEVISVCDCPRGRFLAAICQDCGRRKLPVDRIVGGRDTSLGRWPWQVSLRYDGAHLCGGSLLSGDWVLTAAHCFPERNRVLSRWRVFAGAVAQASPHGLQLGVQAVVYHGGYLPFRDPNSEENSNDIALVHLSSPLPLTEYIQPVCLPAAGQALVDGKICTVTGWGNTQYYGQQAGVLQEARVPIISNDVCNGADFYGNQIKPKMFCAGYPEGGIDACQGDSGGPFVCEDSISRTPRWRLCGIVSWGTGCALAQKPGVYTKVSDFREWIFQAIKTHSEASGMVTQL

SMILES: CC(=O)N[C@@H](CCC(N)=O)C(=O)N[C@@H](Cc1ccccc1)C(=O)N[C@@H](CCCNC(=N)N)C(=O)c1nc2ccccc2s1 [Compound N-00386]
- Ki (human cathepsin L): 7.72 µM and 7.58 µM and 7.87 µM
- Ki (Recombinant human DESC1): 0.0111 µM and 0.00728 µM and 0.00899 µM

SMILES: CC(=O)N[C@@H](CCC(N)=O)C(=O)N[C@@H](Cc1ccccc1)C(=O)N[C@@H](CCCNC(=N)N)C(=O)c1nc2ccccc2s1 [Compound N-386]
- % of Viability (Calu-3 cells; Log [inhibitor] -2.52): 48%
- % of Viability (Calu-3 cells; Log [inhibitor] -4.00): 88%
- % of Viability (Calu-3 cells; Log [inhibitor] -4.52): 90%
- % of Viability (Calu-3 cells; Log [inhibitor] -5.00): 88%
- % of Viability (Calu-3 cells; Log [inhibitor] -7.52): 106%
- viability at 24 h, 3000 µM [1, 4]: 46%
- viability at 24 h, 3000 µM [1, 5]: 44%
- viability at 24 h, 300 µM [1, 4]: 82.5%
- viability at 24 h, 300 µM [1, 5]: 79%
- viability at 24 h, 100 µM [1, 4]: 87%
- viability at 24 h, 100 µM [1, 5]: 86%
- viability at 24 h, 30 µM [1, 4]: 87.5%
- viability at 24 h, 30 µM [1, 5]: 85%
- viability at 24 h, 10 µM [1, 4]: 87%
- viability at 24 h, 10 µM [1, 5]: 86%
- viability at 24 h, 3 µM [1, 4]: 95%
- viability at 24 h, 3 µM [1, 5]: 95%
- viability at 24 h, 0.3 µM [1, 4]: 100%
- viability at 24 h, 0.3 µM [1, 5]: 98%
- viability at 24 h, 0.03 µM [1, 4]: 104%
- viability at 24 h, 0.03 µM [1, 5]: 101%
- viability at 24 h, 0.003 µM [1, 4]: 102%
- viability at 24 h, 0.003 µM [1, 5]: 102%
- CC50 at 24 h ([1]; unit not given for CC50, read-out: CC50): 1880 µM

SMILES: N=C(N)NCCCCC(=O)N[C@@H](CCC(=O)O)C(=O)N[C@@H](Cc1ccccc1)C(=O)N[C@@H](CCCNC(=N)N)C(=O)c1nc2ccccc2s1 [Compound N-00438]
- Ki (Recombinant human furin): > 10 µM
- Ki (human cathepsin L): > 10 µM
- Ki (human thrombin): > 10 µM
- Ki [2]: 0.00121 µM and 0.00102 µM and 0.00109 µM
- Ki (Recombinant human DESC1): 0.0343 µM and 0.0276 µM and 0.0298 µM
- Ki (Recombinant human hepsin): 0.000477 µM and 0.000603 µM and 0.000489 µM

SMILES: CC(=O)NC(CCC(N)=O)C(=O)NC(CC1CCCCC1)C(=O)NC(CCCNC(=N)N)C(=O)c1nc2ccccc2s1 (stereo not shown) [Compound N-0676]
- TMPRSS2 activity (%) (human TMPRSS2): 95.6684% and 87.7074% and 100.707%
- inhibition at 0.01 µM (human TMPRSS2): 8%
- inhibition at 0.1 µM ([3]; Severe acute respiratory syndrome coronavirus 2, Calu-3, read-out: inhibition of SARS-CoV-2 infection): < 53%

SMILES: N=C(N)NCCCC(NC(=O)C(Cc1ccccc1)NC(=O)C(CCC(N)=O)NC(=N)N)C(=O)c1nc2ccccc2s1 (stereo not shown) [Compound N-1296]
- TMPRSS2 activity (%) (human TMPRSS2): 93.2686% and 83.3862% and 77.4595%
- inhibition at 0.01 µM (human TMPRSS2): 16%
- Nucleocapsid ([3]; Figure 2a; two replicates; DMSO control about 91-94): 31.7311 and 81.7299
- dsRNA ([3]; Figure 2a; two replicates; DMSO control about 93-95): 37.1641 and 78.8536
- inhibition at 0.1 µM ([3]; Severe acute respiratory syndrome coronavirus 2, Calu-3; read-out: inhibition of SARS-CoV-2 infection): < 44%
